In US9079859B2, “Synthetic lethal targeting of glucose transport” (AUCKLAND UNISERVICES LIMITED, priority 2011, dated 2015):

Key:
RCC4 cells = experiment: XTT cell viability assay, RCC4; format: cell-based; conditions: four days of treatment; compared to RCC4/VHL; concentration-dependent
Description: (§1) Cell Viability Assays. For 2,3-bis[2-methoxy-4-nitro-5-sulfophenyl]-2H-tetrazolium-5-carboxanilide (XTT) assays, five thousand cells were plated in 96-well plates. The next day, vehicle (DMSO) or drug was added by serial dilution. Four days later, media were aspirated, XTT solution (0.3 mg/ml of XTT (Sigma), […] N-methyl dibenxopyrazine methyl sulfate (Sigma) in phenol red-free media) was added, and the plates were incubated at 37° C. for 1-2 hours. Metabolism of XTT was quantified by measuring the absorbance at 450 nm. IC50s were calculated using linear interpolation. For clonogenic survival assays, three hundred cells were plated per 60 mm tissue culture dish. The cells were allowed to attach overnight and then treated with vehicle or drug for 14 days. Colonies were fixed and stained with crystal violet (0.1% crystal violet in 95% ethanol). All conditions were measured in triplicate and each experiment was done in duplicate or triplicate. To determine necrosis, cells were treated with drug for a given time point. Media and cells were collected, centrifugated, and resuspended in 0.4% trypan blue (Invitrogen). Live and dead cells were counted on a hematocytometer.

ACHN shVHL cells = experiment: Clonogenic survival, ACHN with shRNA to VHL; format: cell-based; conditions: clonogenic survival (FIG. 1E); only the VHL-silenced cells
Description: as §1

[1] = tested on: RCC4/VHL cell clones overexpressing HIF; experiment: Sensitivity of RCC4/VHL clones overexpressing HIF; format: cell-based; conditions: non-degradable, constitutively active HIF; two clones
Description: The hypoxia-inducible factor (HIF) family of transcription factors are VHL targets and we next examined whether toxicity was HIF-dependent (Iliopoulos et al., Nat Med., 1: 822-826 (1995); Maxwell et al., Nature, 399:271-275 (1999); Zimmer et al., Mol Cancer Res., 2:89-95 (2004)). A non-degradable, constitutively active HIF was overexpressed in RCC4/VHL cells. Two individual HIF-overexpressing clones were tested for their sensitivity to STF-31 (Sutphin et al., Cancer Res 67:5896-5905 (2007)). […] Furthermore, the sensitivity of RCCs that lack functional VHL to STF-31 is directly linked to the aberrant up-regulation of HIF.

786-O cells = experiment: Glucose uptake (2-deoxy-D-[3H]glucose), 786-O; format: cell-based; conditions: 5 μM (FIG. 6C)
Description: (§2) Glucose Uptake. One hundred thousand cells were plated per well in a six-well plate. The next day, cells were treated with the indicated concentration of drug and incubated for the indicated time. Cells were then washed twice with phosphate-buffered saline, incubated in low-glucose medium for 30 minutes, and 3H-2-deoxyglucose (0.5 μCi) was added in 1 ml of glucose-free media for an additional hour. Cells were washed twice in PBS and lysed (0.2 N NaOH and 0.2% sodium dodecyl sulfate). Glucose uptake was quantified with a scintillation counter.

RCC4/VHL cells = experiment: Glucose uptake (2-deoxy-D-[3H]glucose), RCC4/VHL; format: cell-based
Description: as §2

hexokinase = experiment: Hexokinase activity in whole-cell lysates, RCC4/VHL; format: cell-based
Text: We then examined whether this decrease in glycolysis in response to STF-31 was due to a decrease in glucose uptake or whether STF-31 inhibited a particular glycolytic enzyme. To test this, we measured glucose uptake using 2-deoxy-D-[^3H] glucose, a non-hydrolyzable, radioactive glucose analog. STF-31 impaired glucose uptake in RCC4 and 786-O cells but not in the matched isogenic cells expressing wild-type VHL (FIGS. 2B, 6A, and 6C). RCC4/VHL cells had lower baseline levels of glucose uptake compared to RCC4 cells and were unaffected by treatment with STF-31. […] Because the phosphorylation of glucose to glucose-6-phosphate is important for preventing glucose efflux from the cell, we asked whether STF-31 might function by inhibiting the phosphorylation of glucose by hexokinase. […]
Cell Culture and Reagents. […] GLUT1 was detected with anti-GLUT1 antibody from NeoMarkers/LabVision/Fisher. For immunofluorescent studies, GLUT1, GLUT2, and GLUT3 antibodies were purchased from R&D. Pyruvate/lactate levels and hexokinase activity were both measured by fluorometric assay (BioVision and Sigma-Aldrich, respectively). ATP levels were measured by bioluminescence assay (ATP Determination Kit from Molecular Probes/Invitrogen). […]

[2] = tested on: VHL-deficient and wild-type VHL cells; experiment: Oxygen consumption; format: cell-based
Description: Oxygen Consumption. Following treatment with vehicle or drug, cells were trypsinized, suspended at 5 million cells per ml in DMEM+10% FCS, and oxygen consumption was measured in 0.5 ml volume using an Oxytherm electrode unit (Hansatech).

GLUT1 = GLUT1 protein levels; format: cell-based
Text: Moreover, the levels of soluble GLUT1 protein were also unaffected by STF-31 (FIG. 8D). […] Active analogs, which selectively kill VHL-deficient cells through glucose uptake, docked within the central channel of GLUT1 (FIG. 3F).

Caki-1 = experiment: RCC panel sensitivity (Table 2); format: cell-based; conditions: Caki-1, VHL wild-type
UMRC6/VHL = experiment: RCC panel sensitivity (Table 2); format: cell-based; conditions: VHL wild-type
CDK1/cyclinB = biological target: T1, CDK1/cyclinB (Homo sapiens, UniProt P06493); experiment: Kinase Profiler; format: biochemical; conditions: STF-31 10 μM
T1 construct: purchased Millipore (Kinase Profiler service)
Description: (§3) Cell Culture and Reagents. All cells were grown in DMEM+10% FCS. ACHN and ACHN shVHL were a kind gift from George V. Thomas (UCLA). HIF overexpressing clones were described previously (Sutphin et al., Cancer Res, 67:5896-5905 (2007)). Transfection of RNA oligos were performed with DnarmaFECT Reagent 1 (Dharmcon), according to manufacturer's directions. ON-TARGETplus SMART pools against HIF-1 R/ARNT were purchased from Dharmacon. Inducible shRNAmir to GLUT1 was purchased from Open Biosystems. GLUT1 was detected with anti-GLUT1 antibody from NeoMarkers/LabVision/Fisher. For immunofluorescent studies, GLUT1, GLUT2, and GLUT3 antibodies were purchased from R&D. Pyruvate/lactate levels and hexokinase activity were both measured by fluorometric assay (BioVision and Sigma-Aldrich, respectively). ATP levels were measured by bioluminescence assay (ATP Determination Kit from Molecular Probes/Invitrogen). In vitro kinase activities were performed by Millipore Kinase Profiler.

CHK1 = biological target: T2, CHK1 (Homo sapiens, UniProt O14757); experiment: Kinase Profiler; format: biochemical; conditions: STF-31 10 μM
T2 construct: purchased Millipore (Kinase Profiler service)
Description: as §3

Plk3 = biological target: T3, Plk3 (Homo sapiens, UniProt Q9H4B4); experiment: Kinase Profiler; format: biochemical; conditions: STF-31 10 μM
T3 construct: purchased Millipore (Kinase Profiler service)
Description: as §3

Rsk1 = biological target: T4, Rsk1 (Homo sapiens, UniProt Q15418); experiment: Kinase Profiler; format: biochemical; conditions: STF-31 10 μM
T4 construct: purchased Millipore (Kinase Profiler service)
Description: as §3

T1 sequence (P06493 whole entry, species assumed): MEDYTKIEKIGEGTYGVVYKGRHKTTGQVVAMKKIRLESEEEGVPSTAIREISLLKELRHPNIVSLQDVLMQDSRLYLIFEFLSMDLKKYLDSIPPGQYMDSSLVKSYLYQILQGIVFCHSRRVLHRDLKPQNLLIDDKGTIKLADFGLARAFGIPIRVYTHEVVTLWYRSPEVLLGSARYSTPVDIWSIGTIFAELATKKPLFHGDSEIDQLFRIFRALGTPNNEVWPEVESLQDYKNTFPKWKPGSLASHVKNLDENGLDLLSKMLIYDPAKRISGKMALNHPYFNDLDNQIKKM
T1 sequence (P14635 whole entry partner, species assumed): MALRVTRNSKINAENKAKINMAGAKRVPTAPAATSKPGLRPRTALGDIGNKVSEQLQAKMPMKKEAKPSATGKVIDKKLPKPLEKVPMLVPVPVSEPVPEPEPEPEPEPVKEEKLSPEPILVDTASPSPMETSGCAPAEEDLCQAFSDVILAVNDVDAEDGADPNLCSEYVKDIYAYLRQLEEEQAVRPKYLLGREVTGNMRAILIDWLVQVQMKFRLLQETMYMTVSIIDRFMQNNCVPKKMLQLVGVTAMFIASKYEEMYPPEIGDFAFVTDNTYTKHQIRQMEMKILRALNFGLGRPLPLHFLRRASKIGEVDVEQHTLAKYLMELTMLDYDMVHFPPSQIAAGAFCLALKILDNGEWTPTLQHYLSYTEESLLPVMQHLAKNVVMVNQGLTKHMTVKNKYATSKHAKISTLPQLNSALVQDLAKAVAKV
T4 sequence (Q15418 whole entry, species assumed): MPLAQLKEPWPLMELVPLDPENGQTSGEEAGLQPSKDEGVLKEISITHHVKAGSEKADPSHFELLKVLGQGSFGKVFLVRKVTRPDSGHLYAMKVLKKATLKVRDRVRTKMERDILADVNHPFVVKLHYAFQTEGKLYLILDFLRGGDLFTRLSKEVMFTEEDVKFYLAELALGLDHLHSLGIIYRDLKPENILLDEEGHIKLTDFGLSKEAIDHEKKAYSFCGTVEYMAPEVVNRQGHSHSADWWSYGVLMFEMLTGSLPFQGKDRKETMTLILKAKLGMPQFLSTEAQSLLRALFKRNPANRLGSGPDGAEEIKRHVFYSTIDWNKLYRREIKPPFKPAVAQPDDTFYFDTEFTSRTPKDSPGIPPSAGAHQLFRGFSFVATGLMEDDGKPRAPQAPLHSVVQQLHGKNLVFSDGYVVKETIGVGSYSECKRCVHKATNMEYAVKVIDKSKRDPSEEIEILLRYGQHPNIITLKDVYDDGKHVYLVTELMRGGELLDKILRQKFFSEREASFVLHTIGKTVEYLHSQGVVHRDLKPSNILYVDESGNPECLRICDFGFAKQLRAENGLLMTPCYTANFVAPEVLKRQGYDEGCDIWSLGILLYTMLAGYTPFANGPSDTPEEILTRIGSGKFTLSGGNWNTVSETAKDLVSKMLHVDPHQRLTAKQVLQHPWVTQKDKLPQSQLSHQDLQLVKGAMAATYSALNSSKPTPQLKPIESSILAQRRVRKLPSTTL
T2 sequence (O14757 whole entry, species assumed): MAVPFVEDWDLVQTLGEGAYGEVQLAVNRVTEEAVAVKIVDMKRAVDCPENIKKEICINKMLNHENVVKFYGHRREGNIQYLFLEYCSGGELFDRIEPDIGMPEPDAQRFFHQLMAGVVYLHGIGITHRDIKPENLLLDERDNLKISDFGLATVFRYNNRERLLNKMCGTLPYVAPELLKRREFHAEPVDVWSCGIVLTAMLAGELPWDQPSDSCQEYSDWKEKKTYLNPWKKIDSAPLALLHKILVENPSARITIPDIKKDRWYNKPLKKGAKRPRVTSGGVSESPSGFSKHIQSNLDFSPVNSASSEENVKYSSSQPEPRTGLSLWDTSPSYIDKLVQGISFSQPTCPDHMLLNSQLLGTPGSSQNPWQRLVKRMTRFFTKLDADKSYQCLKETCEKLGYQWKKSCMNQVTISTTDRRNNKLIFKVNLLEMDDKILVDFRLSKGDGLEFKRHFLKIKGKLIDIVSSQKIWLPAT
T3 sequence (Q9H4B4 whole entry, species assumed): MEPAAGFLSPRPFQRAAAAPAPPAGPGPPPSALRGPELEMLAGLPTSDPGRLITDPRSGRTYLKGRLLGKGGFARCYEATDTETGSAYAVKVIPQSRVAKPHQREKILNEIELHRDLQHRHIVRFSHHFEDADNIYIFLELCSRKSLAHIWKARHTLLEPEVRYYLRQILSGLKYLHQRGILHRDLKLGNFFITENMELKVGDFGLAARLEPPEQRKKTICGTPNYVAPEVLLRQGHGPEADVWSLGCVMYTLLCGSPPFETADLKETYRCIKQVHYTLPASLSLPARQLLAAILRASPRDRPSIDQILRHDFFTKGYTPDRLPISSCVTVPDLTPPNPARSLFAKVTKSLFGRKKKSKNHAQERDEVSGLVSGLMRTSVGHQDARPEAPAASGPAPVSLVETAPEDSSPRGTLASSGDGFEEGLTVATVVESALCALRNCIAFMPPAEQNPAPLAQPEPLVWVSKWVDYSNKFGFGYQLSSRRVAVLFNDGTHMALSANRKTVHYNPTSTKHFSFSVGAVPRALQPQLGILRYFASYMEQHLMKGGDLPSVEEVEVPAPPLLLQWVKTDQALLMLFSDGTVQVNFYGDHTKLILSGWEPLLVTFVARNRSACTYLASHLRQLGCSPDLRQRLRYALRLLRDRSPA

## CC(C)(C)c1ccc(S(=O)(=O)NCc2ccc(C(=O)Nc3cccnc3)cc2)cc1 [STF-31]
RCC4 cells
  number of RCC4 cells (cell viability by XTT): significant decrease
ACHN shVHL cells
  sensitivity of ACHN cells with VHL silenced by shRNA: sensitive
[1]
  effect of ectopic HIF expression in wild-type VHL cells on response to STF-31: sensitized
786-O cells
  glucose uptake in 786-O cells: impaired
RCC4/VHL cells; 2-deoxy-D-[3H]glucose
  glucose uptake in RCC4/VHL cells: unaffected
RCC4/VHL cells; increasing concentrations of STF-31
  glucose uptake in RCC4/VHL cells versus concentration: relatively stable
hexokinase
  hexokinase activity of RCC4/VHL cells: unchanged
[2]
  oxygen consumption, treated versus not treated cells: no difference
GLUT1; soluble and insoluble fractions
  levels of soluble GLUT1 protein: unaffected
GLUT1; time- or concentration-dependent (1.25-10 μM, 3 days)
  GLUT1 protein levels: did not affect
Caki-1
  3-series sensitivity (sensitivity to STF-31): Yes
UMRC6/VHL
  3-series sensitivity (sensitivity to STF-31): No
CDK1/cyclinB
  Kinase response to STF-31: 96
CHK1
  Kinase response to STF-31: 114
Plk3
  Kinase response to STF-31: 104
Rsk1
  Kinase response to STF-31: 120
